Assay results: US20250092017A1, “2-PIPERIDYL OR 2-PYRAZOLYL SUBSTITUTED PYRIMIDINE COMPOUND SERVING AS EGFR INHIBITOR” (SUZHOU PUHE BIOPHARMA CO., LTD., priority 2022, published 2025)

Tests used:
Format in all cases: biochemical
EGFR (wild-type) = EGFR (wild-type) (Homo sapiens, UniProt P00533); experiment: MSA (Mobility Shift Assay) kinase activity, EGFR wild type; details: read-out: EGFR wt/ IC50/nM
Procedure: (§1) The MSA (Mobility Shift Assay) method was used to detect the effects of small molecule inhibitors on the kinase activity of EGFR wild type and its mutants (EGFR^wt, EGFR-L858R, EGFR-L858R-T790M-C797S, EGFR-L858R-C797S).
(§2) 10 μL of kinase solution at 2.5 times the final concentration was added to the compound wells and positive control Max wells; 10 μL of 1x kinase buffer was added to the negative control Min wells. The mixture was centrifuged at 1000 rpm for 30 seconds, and the reaction plate was shaken to mix the solution well and then incubated at room temperature for 10 minutes. A mixed solution of ATP and kinase substrate at 5/3 times the final concentration was prepared in 1x kinase buffer. 15 μL of a mixed solution of ATP and substrate at 5/3 times the final concentration was added to initiate the reaction. The 384-well plate was centrifuged at 1000 rpm for 30 seconds, and shaken to mix the solution well and then incubated at room temperature for the corresponding time. 30 μL of stop detection solution was added to stop the kinase reaction, and the mixture was centrifuged at 1000 rpm for 30 seconds, and then to mixed well by shaking. The conversion rate was read using Caliper EZ Reader.
(§3) wherein: Conversion %_sample is the conversion rate reading of the sample; Conversion %_min is the mean of the negative control wells, representing the conversion rate reading of the wells without enzyme activity; Conversion %_max is the mean of the positive control wells, representing the conversion rate reading of the wells without compound inhibition.
(§4) The log (inhibitor) vs. response —Variable slope of the analysis software GraphPad Prism 5 was used to fit the dose-effect curve, where the log value of the concentration was used as the X-axis and the percentage inhibition rate was used as the Y-axis, to obtain the IC50 value of each compound on the enzyme activity.
(§5) The calculation formula is Y=Bottom+(Top-Bottom)/(1+10^((Log IC50−X)*Hill Slope))

EGFR (L858R) = EGFR (L858R) (Homo sapiens, UniProt P00533, L858R); experiment: MSA (Mobility Shift Assay) kinase activity, EGFR-L858R
EGFR (L858R), sequence (P00533 25-1210 L858R): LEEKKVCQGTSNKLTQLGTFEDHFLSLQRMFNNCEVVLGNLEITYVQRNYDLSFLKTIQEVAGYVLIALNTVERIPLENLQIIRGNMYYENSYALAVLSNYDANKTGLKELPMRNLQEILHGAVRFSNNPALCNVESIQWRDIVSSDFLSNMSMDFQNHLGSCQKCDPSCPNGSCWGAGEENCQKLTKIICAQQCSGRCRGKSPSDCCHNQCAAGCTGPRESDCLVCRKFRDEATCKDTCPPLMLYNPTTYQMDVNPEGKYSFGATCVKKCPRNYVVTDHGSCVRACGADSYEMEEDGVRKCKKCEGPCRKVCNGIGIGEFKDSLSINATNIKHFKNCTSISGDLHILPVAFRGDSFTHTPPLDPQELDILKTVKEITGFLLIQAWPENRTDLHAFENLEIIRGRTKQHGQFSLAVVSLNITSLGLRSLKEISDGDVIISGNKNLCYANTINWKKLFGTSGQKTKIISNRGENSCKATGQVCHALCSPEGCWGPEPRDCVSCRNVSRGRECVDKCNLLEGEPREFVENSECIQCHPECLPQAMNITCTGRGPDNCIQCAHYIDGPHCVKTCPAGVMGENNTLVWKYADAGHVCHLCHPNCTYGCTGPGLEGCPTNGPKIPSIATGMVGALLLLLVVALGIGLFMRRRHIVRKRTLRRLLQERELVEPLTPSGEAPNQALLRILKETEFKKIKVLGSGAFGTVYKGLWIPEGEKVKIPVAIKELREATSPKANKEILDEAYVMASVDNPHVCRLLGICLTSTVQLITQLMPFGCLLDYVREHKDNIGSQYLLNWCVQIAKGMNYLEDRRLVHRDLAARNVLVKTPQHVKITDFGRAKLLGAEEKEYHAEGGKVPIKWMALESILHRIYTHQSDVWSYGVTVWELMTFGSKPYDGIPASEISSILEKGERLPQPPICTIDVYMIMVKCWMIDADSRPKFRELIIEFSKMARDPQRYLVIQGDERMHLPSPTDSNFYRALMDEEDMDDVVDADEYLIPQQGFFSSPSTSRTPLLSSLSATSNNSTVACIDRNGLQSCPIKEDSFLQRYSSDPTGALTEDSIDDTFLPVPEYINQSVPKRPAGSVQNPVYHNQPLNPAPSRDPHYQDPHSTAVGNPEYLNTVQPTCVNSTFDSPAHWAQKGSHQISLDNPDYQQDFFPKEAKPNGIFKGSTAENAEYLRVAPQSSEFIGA
Procedure: as §1, §2, §3, §4, §5

EGFR (L858R/T790M/C797S) = EGFR (L858R/T790M/C797S) (Homo sapiens, UniProt P00533, C797S/L858R/T790M); experiment: MSA (Mobility Shift Assay) kinase activity, EGFR-L858R-T790M-C797S
EGFR (L858R/T790M/C797S), sequence (P00533 25-1210 T790M/C797S/L858R): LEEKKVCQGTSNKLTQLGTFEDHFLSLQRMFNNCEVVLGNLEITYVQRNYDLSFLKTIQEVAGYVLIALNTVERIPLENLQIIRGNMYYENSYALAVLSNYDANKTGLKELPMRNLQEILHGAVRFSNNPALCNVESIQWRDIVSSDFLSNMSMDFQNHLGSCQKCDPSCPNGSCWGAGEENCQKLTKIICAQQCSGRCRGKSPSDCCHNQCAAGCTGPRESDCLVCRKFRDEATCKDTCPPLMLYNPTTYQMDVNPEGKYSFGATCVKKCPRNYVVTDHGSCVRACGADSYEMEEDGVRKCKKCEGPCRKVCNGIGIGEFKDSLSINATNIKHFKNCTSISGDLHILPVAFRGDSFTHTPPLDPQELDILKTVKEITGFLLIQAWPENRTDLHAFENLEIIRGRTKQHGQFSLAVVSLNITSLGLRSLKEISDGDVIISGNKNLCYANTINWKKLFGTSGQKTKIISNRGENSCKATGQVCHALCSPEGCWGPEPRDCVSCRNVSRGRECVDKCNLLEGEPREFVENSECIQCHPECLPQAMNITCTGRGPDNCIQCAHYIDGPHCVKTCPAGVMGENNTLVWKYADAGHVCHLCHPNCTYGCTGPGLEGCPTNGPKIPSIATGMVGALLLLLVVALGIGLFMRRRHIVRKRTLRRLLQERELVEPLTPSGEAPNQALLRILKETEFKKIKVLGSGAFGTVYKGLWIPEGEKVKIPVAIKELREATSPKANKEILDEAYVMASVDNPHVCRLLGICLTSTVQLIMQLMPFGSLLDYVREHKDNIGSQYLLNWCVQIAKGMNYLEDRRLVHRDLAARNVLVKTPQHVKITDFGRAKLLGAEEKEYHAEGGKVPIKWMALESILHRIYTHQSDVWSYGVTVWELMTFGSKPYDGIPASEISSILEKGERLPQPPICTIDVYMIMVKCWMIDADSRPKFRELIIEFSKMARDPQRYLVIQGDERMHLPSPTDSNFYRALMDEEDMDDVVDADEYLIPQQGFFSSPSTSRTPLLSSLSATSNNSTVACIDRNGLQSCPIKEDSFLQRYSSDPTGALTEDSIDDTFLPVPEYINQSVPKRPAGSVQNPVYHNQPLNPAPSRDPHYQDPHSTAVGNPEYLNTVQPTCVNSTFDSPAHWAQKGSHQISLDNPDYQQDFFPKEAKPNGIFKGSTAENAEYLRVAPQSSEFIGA
Procedure: as §1, §2, §3, §4, §5

EGFR (L858R/C797S) = EGFR (L858R/C797S) (Homo sapiens, UniProt P00533, C797S/L858R); experiment: MSA (Mobility Shift Assay) kinase activity, EGFR-L858R-C797S
EGFR (L858R/C797S), sequence (P00533 25-1210 C797S/L858R): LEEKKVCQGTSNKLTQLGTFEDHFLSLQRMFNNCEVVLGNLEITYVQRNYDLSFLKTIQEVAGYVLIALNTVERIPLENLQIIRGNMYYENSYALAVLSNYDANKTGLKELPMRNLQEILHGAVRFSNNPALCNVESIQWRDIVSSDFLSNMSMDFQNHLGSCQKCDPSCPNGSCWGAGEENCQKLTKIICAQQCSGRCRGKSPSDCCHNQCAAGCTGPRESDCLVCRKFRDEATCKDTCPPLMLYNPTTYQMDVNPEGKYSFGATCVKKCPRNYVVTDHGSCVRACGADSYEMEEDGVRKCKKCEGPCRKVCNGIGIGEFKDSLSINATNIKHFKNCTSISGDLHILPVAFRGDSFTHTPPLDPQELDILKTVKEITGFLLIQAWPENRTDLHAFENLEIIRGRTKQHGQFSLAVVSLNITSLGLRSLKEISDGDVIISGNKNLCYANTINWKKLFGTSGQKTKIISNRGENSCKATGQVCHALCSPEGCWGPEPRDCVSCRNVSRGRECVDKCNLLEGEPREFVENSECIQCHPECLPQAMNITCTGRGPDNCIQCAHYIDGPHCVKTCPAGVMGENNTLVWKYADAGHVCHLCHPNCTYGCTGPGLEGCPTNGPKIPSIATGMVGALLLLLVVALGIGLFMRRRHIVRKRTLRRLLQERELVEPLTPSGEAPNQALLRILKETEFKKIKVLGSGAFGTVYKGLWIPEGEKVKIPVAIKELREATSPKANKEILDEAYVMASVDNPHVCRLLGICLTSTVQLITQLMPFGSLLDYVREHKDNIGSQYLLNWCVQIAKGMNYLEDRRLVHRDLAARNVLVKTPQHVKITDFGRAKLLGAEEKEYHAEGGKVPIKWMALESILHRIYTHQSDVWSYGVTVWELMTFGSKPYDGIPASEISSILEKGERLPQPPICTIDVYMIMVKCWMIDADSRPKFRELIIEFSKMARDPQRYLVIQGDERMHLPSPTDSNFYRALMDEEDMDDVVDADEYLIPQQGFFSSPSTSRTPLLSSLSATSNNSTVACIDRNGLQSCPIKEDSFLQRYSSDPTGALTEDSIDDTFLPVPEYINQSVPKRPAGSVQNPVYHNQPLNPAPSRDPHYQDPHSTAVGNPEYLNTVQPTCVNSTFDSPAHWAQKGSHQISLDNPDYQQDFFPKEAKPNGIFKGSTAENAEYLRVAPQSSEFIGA
Procedure: as §1, §2, §3, §4, §5

EGFR (wild-type), sequence (P00533 25-1210): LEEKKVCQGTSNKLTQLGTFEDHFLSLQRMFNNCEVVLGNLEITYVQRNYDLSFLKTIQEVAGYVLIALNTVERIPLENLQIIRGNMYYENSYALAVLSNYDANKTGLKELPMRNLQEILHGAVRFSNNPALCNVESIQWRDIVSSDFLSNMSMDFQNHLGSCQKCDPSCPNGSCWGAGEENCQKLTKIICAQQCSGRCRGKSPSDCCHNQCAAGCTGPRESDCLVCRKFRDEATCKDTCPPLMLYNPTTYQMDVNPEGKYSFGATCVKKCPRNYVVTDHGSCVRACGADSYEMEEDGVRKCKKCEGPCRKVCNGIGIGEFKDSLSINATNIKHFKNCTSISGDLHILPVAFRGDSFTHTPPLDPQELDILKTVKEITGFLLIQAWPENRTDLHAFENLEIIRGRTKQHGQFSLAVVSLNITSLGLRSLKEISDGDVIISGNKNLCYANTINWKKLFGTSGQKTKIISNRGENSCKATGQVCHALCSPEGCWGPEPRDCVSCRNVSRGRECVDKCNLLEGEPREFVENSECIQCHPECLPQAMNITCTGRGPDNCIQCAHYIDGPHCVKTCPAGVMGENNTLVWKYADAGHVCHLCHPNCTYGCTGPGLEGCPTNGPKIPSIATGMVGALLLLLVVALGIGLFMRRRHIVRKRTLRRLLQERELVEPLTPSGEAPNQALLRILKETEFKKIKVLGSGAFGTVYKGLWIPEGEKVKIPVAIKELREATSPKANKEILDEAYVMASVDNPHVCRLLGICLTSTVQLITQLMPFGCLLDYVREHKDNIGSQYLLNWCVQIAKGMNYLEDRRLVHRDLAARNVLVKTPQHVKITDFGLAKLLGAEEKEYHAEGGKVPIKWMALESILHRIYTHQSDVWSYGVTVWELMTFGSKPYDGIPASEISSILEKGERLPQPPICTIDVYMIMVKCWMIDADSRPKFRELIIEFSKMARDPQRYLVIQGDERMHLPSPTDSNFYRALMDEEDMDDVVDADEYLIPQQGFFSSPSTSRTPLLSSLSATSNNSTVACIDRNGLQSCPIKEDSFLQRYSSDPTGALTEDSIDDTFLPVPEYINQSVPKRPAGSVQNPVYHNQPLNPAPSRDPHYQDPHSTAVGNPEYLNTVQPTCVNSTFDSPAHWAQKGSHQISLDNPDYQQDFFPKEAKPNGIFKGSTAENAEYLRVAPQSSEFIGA

SMILES	IC50 (EGFR (wild-type)) [nM]	IC50 (EGFR (L858R)) [nM]	IC50 (EGFR (L858R/T790M/C797S)) [nM]	IC50 (EGFR (L858R/C797S)) [nM]
CC(C)c1ccc(N2C[C@@H](NS(C)(=O)=O)[C@@H]2C)c2cnc(Nc3ccnc(N4CCC(O)C(F)C4)n3)cc12 (some centres unmarked) [Compound P26]	> 100	> 100	30.9	> 100
CC(C)c1ccc(N2CC(CS(C)(=O)=O)C2)c2cnc(Nc3ccnc(-c4cnn(S(=O)(=O)C5CCCCC5)c4)n3)cc12 [Compound H9]	> 100	–	6.3	12
CNC(=O)CN1CC(c2ccc(C(C)C)c3cc(Nc4ccnc(N5CCC(O)C(F)C5)n4)ncc23)C1 (centres unmarked) [Compound P15]	> 100	98.9	1.7	> 100
CNC(=O)CC1CN(c2ccc(C(C)C)c3cc(Nc4ccnc(N5CCC(O)C(F)C5)n4)ncc23)C1 (centres unmarked) [Compound P20]	90.9	20.5	0.42	43.1
CC(C)c1ccc(N2CC(NS(=O)(=O)c3cccnc3)C2)c2cnc(Nc3ccnc(N4CCC(O)C(F)C4)n3)cc12 (centres unmarked) [Compound P28]	64	13	0.34	27
CC(C)n1c(=O)cc(N2CC(CS(C)(=O)=O)C2)c2cnc(Nc3ccnc(N4CCC(O)CC4)n3)cc21 [Compound P13]	> 100	31.2	1	34.5
COc1cccc(-c2nccc(Nc3cc4c(C(C)C)ccc(N5CC(CS(C)(=O)=O)C5)c4cn3)n2)n1 [Compound H2]	> 100	> 100	71.6	> 100
CC(C)n1c(=O)nc(N2CC(CS(C)(=O)=O)C2)c2cnc(Nc3ccnc(N4CCC(O)C(F)C4)n3)cc21 (centres unmarked) [Compound P19]	> 100	> 100	3.4	> 100

Next, values leading:

IC50 (EGFR (wild-type)) [nM]	IC50 (EGFR (L858R)) [nM]	IC50 (EGFR (L858R/T790M/C797S)) [nM]	IC50 (EGFR (L858R/C797S)) [nM]	SMILES
> 100	43.3	4.6	> 100	CC(C)c1ccc(N2CC3(CC(S(C)(=O)=O)C3)C2)c2cnc(Nc3ccnc(N4CCC(O)CC4)n3)cc12 [Compound P4]
> 100	> 100	1.9	> 100	CC(C)c1ccc(N2CC(c3cccnc3)C2)c2cnc(Nc3ccnc(N4CCC(O)C(F)C4)n3)cc12 (centres unmarked) [Compound P12]
10.2	4.6	0.43	1.9	CC(C)n1c(=O)cc(N2CC(CS(C)(=O)=O)C2)c2cnc(Nc3ccnc(-c4cnn(S(=O)(=O)C5CC5)c4)n3)cc21 [Compound H5]
> 100	–	3.5	6.4	CC(C)c1ccc(N2CC(CS(C)(=O)=O)C2)c2cnc(Nc3ccnc(-c4cnn(S(=O)(=O)C(F)(F)F)c4)n3)cc12 [Compound H8]
> 100	73.4	1.6	> 100	CC(C)c1ccc(N2CC(C[S+](C)[O-])C2)c2cnc(Nc3ccnc(N4CCC(O)C(F)C4)n3)cc12 (centres unmarked) [Compound P17]
